According to US4400199A, “Thiolcarbamate compounds and their use as herbicides” (priority 1981, dated 1983):
In brackets after ≈: the same amount, converted by molar mass. Several values for one entry are separate records, joined by “and”; a condition that tells them apart may be missing. Equal entries are not always repeated. Where two headings read alike, the source gives them in different places.

Key:
barnyard grass = experiment: Experiment 2: herbicidal effects against barnyard grass (pot test, granules); assay type: in vivo, Echinochloa crus-galli; settings: 2.5 leaf-stage, 25 days
[1] = system: barnyard grass (Echinochloa crus-galli); experiment: Experiment 1: herbicidal effects against barnyard grass (pot test, emulsifiable concentrate); assay type: in vivo
[2] = system: Hotarui (Scirpus juncoides); experiment: Experiment 2: herbicidal effects against Hotarui (pot test, granules); assay type: in vivo; settings: 25 days
[3] = system: Mizugayatsuri (Cyperus serotinus); experiment: Experiment 2: herbicidal effects against Mizugayatsuri (pot test, granules); assay type: in vivo; settings: 25 days
[4] = Experiment 4: subacute toxicity to fish; assay type: in vivo, 2-year-old carps; settings: carp, water; 0.2 ppm; 3 weeks; read-out: Survival rate after 3 weeks
Method: (§1) With respect to the compounds according to the present invention and the comparative compounds listed in Table 4, there were conducted tests on subacute toxicity to 2-year-old carps having an average weight of 20 g.
(§2) Ten 2-year-old carps were released in each of 25-liter water tanks equipped with an air-blowing apparatus and acclimatized to the surroundings while feeding for 10 days. Water in each of the water tanks was continuously replaced with fresh water so that the residence time of water in the water tanks is 6 hours. Each test compound was added to a predetermined quantity of supply water to prepare a 0.2 ppm aqueous solution of each compound, and each of the aqueous solutions was continuously added to the water in the tank. After three weeks, the hematocrit values of all the survival carps were determined. The hematocrit value used herein is intended to mean a volume percentage of erythrocyte contained in the blood.

carps = experiment: Experiment 4: subacute toxicity to fish; assay type: in vivo, 2-year-old carps; settings: for Average Hematocrit Value of survival fish / subacute toxicity to carps (in words) / survival of carps (in words) / symptoms of anemia in carps (in words): 0.2 ppm, 3 weeks
Method: as §1, §2

broad-leaf weeds = experiment: Experiment 2: herbicidal effects against broad-leaf weeds (pot test, granules); assay type: in vivo; settings: 25 days
[5] = Experiment 3: acute toxicity to fish; assay type: in vivo, Black-carp fry; settings: carp, water; for LC50 at 48 h: read-out: Median lethal concentration TLm (48hrs); for LC50 at 96 h: read-out: Median lethal concentration TLm (96hrs)
Method: With respect to the compounds according to the present invention and the comparative compounds (Compound 10, Compound 12 and Compound 13), there were conducted tests on acute toxicity to carps.
In 25-liter water tanks made of glass was charged 20 liters of water. 12 Black-carp fry were released to each of the water tanks and bred while feeding for 7 days. Then, the whole quantity of water in each of the tanks was replaced with fresh water, and feeding to the carps was stopped. After three days, a prescribed amount of 1 weight % solution of a test compound in acetone was added to water in the water tank.
The number of survival fish in each tank was counted after 24 hours, 48 hours and 96 hours, successively.
The TLm (median tolerance limit=lethal concentration 50%) was determined by the Doudorff's method (Sewage & Ind. Wastes 23 (1951) 1380-1397).

rice plants [6] = experiment: Experiment 2: phytotoxicity to rice plants (pot test, granules); settings: for phytotoxicity rice plant: 25 days
paddy field weeds = experiment: Experiment 2: herbicidal effects against paddy field weeds, overall; assay type: in vivo; settings: compared with Molinate (Compound 13)
rice plants [7] = settings: in vivo
rice plants [8] = settings: in vivo; remark: listed apart in the source
[9] = 1.5 leaf-stage of barnyard grass, 150 g/10a., 25 days
[10] = 1.5 leaf-stage of barnyard grass, 300 g/10a., 25 days
[11] = 1.5 leaf-stage of barnyard grass, 600 g/10a., 25 days
[12] = 3 leaf-stage of barnyard grass, 150 g/10a., 25 days
[13] = 3 leaf-stage of barnyard grass, 300 g/10a., 25 days
[14] = 3 leaf-stage of barnyard grass, 600 g/10a., 25 days

| Structure (SMILES) | herbicidal activity (barnyard grass) (barnyard grass; 150 g/10a.) | herbicidal activity (barnyard grass) (barnyard grass; 300 g/10a.) | herbicidal activity (barnyard grass) (barnyard grass; 600 g/10a.) | herbicidal activity (barnyard grass) [1, 9] | herbicidal activity (barnyard grass) [1, 10] | herbicidal activity (barnyard grass) [1, 11] | herbicidal activity (barnyard grass) [1, 12] | herbicidal activity (barnyard grass) [1, 13] | Herbicidal activity Hotarui (Scirpus juncoides) ([2]; 150 g/10a.) | Herbicidal activity Hotarui (Scirpus juncoides) ([2]; 300 g/10a.) | Herbicidal activity Hotarui (Scirpus juncoides) ([2]; 600 g/10a.) | Herbicidal activity Mizugayatsuri (Cyperus serotinus) ([3]; 150 g/10a.) | Herbicidal activity Mizugayatsuri (Cyperus serotinus) ([3]; 300 g/10a.) | Herbicidal activity Mizugayatsuri (Cyperus serotinus) ([3]; 600 g/10a.) | survival at 504 h [4] [%] | Average Hematocrit Value of survival fish (carps) [%] | Herbicidal activity broad-leaf weeds (broad-leaf weeds; 150 g/10a.) | Herbicidal activity broad-leaf weeds (broad-leaf weeds; 300 g/10a.) | Herbicidal activity broad-leaf weeds (broad-leaf weeds; 600 g/10a.) | LC50 at 48 h [5] [µg/mL] | further results |
| --- | --- | --- | --- | --- | --- | --- | --- | --- | --- | --- | --- | --- | --- | --- | --- | --- | --- | --- | --- | --- | --- |
| CC1CCC(C)CN(C(=O)SCCCCl)C1 (stereo not drawn) [Compound 6, S-(3-chloropropyl)-3,6-dimethyl-hexahydro-1H-azepine-1-carbothioate] | 5 (more than 90%) | 5 (more than 90%) | 5 (more than 90%) | 5 (more than 90%) | 5 (more than 90%) | 5 (more than 90%) | 5 (more than 90%) | 5 (more than 90%) | 4 (70 to 89%) | 5 (more than 90%) | 5 (more than 90%) | 3 (50 to 69%) | 4 (70 to 89%) | 5 (more than 90%) | 100 | 34 | 4 (70 to 89%) | 5 (more than 90%) | 5 (more than 90%) | 4.4 (≈ 16.7 µM) | herbicidal activity (barnyard grass) [1, 14]: 5 (more than 90%); LC50 at 96 h [5]: 3.7 µg/mL (≈ 14 µM) |
| CC1CCC(C)CN(C(=O)SCCCCCl)C1 (stereo not drawn) [Compound 7, S-(4-chlorobutyl)-3,6-dimethyl-hexahydro-1H-azepine-1-carbothioate] | 5 (more than 90%) | 5 (more than 90%) | 5 (more than 90%) | 5 (more than 90%) | 5 (more than 90%) | 5 (more than 90%) | 5 (more than 90%) | 5 (more than 90%) | 3 (50 to 69%) | 5 (more than 90%) | 5 (more than 90%) | 3 (50 to 69%) | 4 (70 to 89%) | 5 (more than 90%) | 100 | 34 | 4 (70 to 89%) | 5 (more than 90%) | 5 (more than 90%) | 2.6 (≈ 9.36 µM) | herbicidal activity (barnyard grass) [1, 14]: 5 (more than 90%); LC50 at 96 h [5]: 2.6 µg/mL (≈ 9.36 µM) |
| CCN(CC)C(=O)SCCCCl [Compound 10, reference compound] | 5 (more than 90%) | 5 (more than 90%) | 5 (more than 90%) |  |  |  |  |  | 4 (70 to 89%) | 4 (70 to 89%) | 5 (more than 90%) | 4 (70 to 89%) | 4 (70 to 89%) | 5 (more than 90%) | 80 | 16 | 5 (more than 90%) | 5 (more than 90%) | 5 (more than 90%) | > 20 | harmful effects to rice plants (in words) (rice plants [6]): without harmful effects to rice plants; phytotoxicity rice plant (rice plants [6]; 150 g/10a.): 0 (less than 10%); phytotoxicity rice plant (rice plants [6]; 300 g/10a.): 0 (less than 10%); phytotoxicity rice plant (rice plants [6]; 600 g/10a.): 0 (less than 10%); herbicidal activity (in words) (paddy field weeds): excellent herbicidal activities; herbicidal activity (barnyard grass) ([1]; in vivo): 5 (key: 5: more than 90%; 4: 70 to 89%; 3: 50 to 69%; 2: 30 to 49%; 10 to 29%; less than 10%); herbicidal activity (in words) ([1]; in vivo): sufficient herbicidal activities; phytotoxicity rice plant (rice plants [7]): 0 (key: 5: more than 90%; 4: 70 to 89%; 3: 50 to 69%; 2: 30 to 49%; 10 to 29%; less than 10%); subacute toxicity to carps (in words) (carps): high subacute toxicity to carps; survival of carps (in words) (carps): extremely low; symptoms of anemia in carps (in words) (carps): remarkable symptons of anemia; LC50 at 96 h [5]: 18 µg/mL (≈ 85.8 µM) |
| CC1CCCCN1C(=O)SCCCCl (centres unmarked) [Compound 12, reference compound] | 5 (more than 90%) | 5 (more than 90%) | 5 (more than 90%) | 5 (more than 90%) | 5 (more than 90%) | 5 (more than 90%) | 5 (more than 90%) | 5 (more than 90%) | 4 (70 to 89%) | 5 (more than 90%) | 5 (more than 90%) | 4 (70 to 89%) | 4 (70 to 89%) | 5 (more than 90%) | 70 | 19 | 5 (more than 90%) | 5 (more than 90%) | 5 (more than 90%) | < 0.5 | harmful effects to rice plants (in words) (rice plants [8]): without harmful effects to rice plants; herbicidal activity (in words) (paddy field weeds): excellent herbicidal activities; herbicidal activity (barnyard grass) [1, 14]: 5 (more than 90%); herbicidal activity (in words) ([1]; barnyard grass): sufficient herbicidal activities; subacute toxicity to carps (in words) (carps): high subacute toxicity to carps; survival of carps (in words) (carps): extremely low; symptoms of anemia in carps (in words) (carps): remarkable symptons of anemia; LC50 at 24 h ([5]; 24 hrs, read-out: Median lethal concentration TLm (24hrs)): 1 µg/mL (≈ 4.24 µM) |
| CCSC(=O)N1CCCCCC1 [Compound 13, S-ethyl-hexahydro-1H-azepine-1-carbothioate, reference compound] | 3 (50 to 69%) | 4 (70 to 89%) | 5 (more than 90%) |  |  |  |  |  | 0 (less than 10%) | 1 (10 to 29%) | 2 (30 to 49%) | 0 (less than 10%) | 1 (10 to 29%) | 1 (10 to 29%) | 50 | 25 | 1 (10 to 29%) | 2 (30 to 49%) | 3 (50 to 69%) | 34 (≈ 182 µM) | phytotoxicity rice plant (rice plants [6]; 150 g/10a.): 0 (less than 10%); phytotoxicity rice plant (rice plants [6]; 300 g/10a.): 0 (less than 10%); phytotoxicity rice plant (rice plants [6]; 600 g/10a.): 2 (30 to 49%); herbicidal activity (barnyard grass) ([1]; in vivo): 5 (key: 5: more than 90%; 4: 70 to 89%; 3: 50 to 69%; 2: 30 to 49%; 10 to 29%; less than 10%) and 4 (key: 5: more than 90%; 4: 70 to 89%; 3: 50 to 69%; 2: 30 to 49%; 10 to 29%; less than 10%) and 3 (key: 5: more than 90%; 4: 70 to 89%; 3: 50 to 69%; 2: 30 to 49%; 10 to 29%; less than 10%); subacute toxicity to carps (in words) (carps): high subacute toxicity to carps; survival of carps (in words) (carps): extremely low; symptoms of anemia in carps (in words) (carps): remarkable symptons of anemia; subacute anemia symptoms in fish (in words) (carps; general statement): subacute anemia symptoms in fish |
